According to EP3572468B1, “CYANINE DYES AND THEIR USAGE FOR IN VIVO STAINING OF MICROORGANISMS” (PHILIPPS-UNIVERSITÄT MARBURG, priority 2018, dated 2019):

Key:
dsDNACT = test: Fluorescence quantum yield with dsDNACT; format: physicochemical, calf; details: with dsDNACT (30 eq.); 10 mM Tris pH 7.6 and 50 mM KCI, 25°C; reference dye Alexa Fluor 647
Description: Fluorescence intensity values for the quantum yields were determined on an ISS PC1 spectrofluorometer with an ISS 11650 lamp connected to an ISS Simpson model 109 and an ISS 80011 photomulitplier connected to a MGW Lauda K2R D and an Amherst Scientific Corp. 7600F for cooling. A VWR Refrigerated Circ 1160S was connected for the cooling of the cuvette chamber. It was measured in a 1400 µL fluorescence cuvette of HellmaAnalytics (104F-QS) at 25°C using the following settings: increment: 2.0 nm; integration time: 1.0 s; excitation slit width: 0.25 mm; emission slit width: 0.5 mm; excitation wavelength 590 nm. The emission spectra were recorded from 610 to 750 nm. From all spectra the corresponding background signal was substracted. Absorbance values were measured on a Jasco V-650 UV-Vis Spectrophotometer equipped with a Jasco PAC-743 temperature controlled cell holder and a Julabo F250 cooling system. […] The values for the reference compounds were measured in duplicates, the ones for 6-TramTO-3 with and without dsDNACT in triplicates. The quantum yields of 6-TramTO-3 with (30 eq.) and without dsDNACT were determined in 10 mM Tris pH 7.6 and 50 mM KCI. […]
Table 3: Determined slopes and corresponding quantum yields for the two reference compounds Alexa Flour® 647 and Atto 655 and for 6-TramTO-3 with and without dsDNACT.

[1] = Excitation and emission spectra; format: physicochemical; details: aqueous solution; 10 µM in 10 mM Tris pH 7.6 and 50 mM KCI
Description: Fluorescence measurements and tritations were performed on a Jasco FP-6500 spectrofluorometer equipped with a Thermo Haake WKL 26 water recirculator at 20°C. Unless otherwise noted, a 1400 µL fluorescence cuvette of HellmaAnalytics (104F-QS) was used and the measurements were performed with the following settings: increment: 1.0 nm; integration time: 0.2 s; speed: 500 nm/min; sensitivity: medium; excitation slit width: 3 nm; emission slit width: 3 nm; excitation wavelength 610 nm. The emission spectra were recorded from 625 to 750 nm at 20°C. From all spectra, the corresponding background signal was substracted. The used hairpin double-stranded DNAs dsDNAhAT and dsDNAhGC had the sequences depicted in Table. 1. Table 1: Binding sites and sequences of DNA hairpins, which were used for fluorescence titrations experiments.
For each cyanine dye derivative: 6-AzTO-3, 6-TramTO-3 and 6-NH2TO-3, the excitation and emission spectra of a 10 µM solution of the corresponding compound in 1 mL of 10 mM Tris pH 7.6 and 50 mM KCI were measured. The excitation spectra were recorded at an emission of 670 nm in a rage from 500 - 660 nm (slit 5/10 nm), while the emission spectra were measured at an excitation of 590 nm in a range from 600 - 750 nm (slit 5/10 nm). (cf. Fig. 13)

[2] = system: primary human macrophages; test: Uptake of 6-TramTO-3-labeled bacteria by macrophages (co-culture, FACS); format: cell-based; details: multiplicity of infection of 20
Description: For primary human macrophage cultures buffy coats from blood donations were loaded onto Lymphoprep™ gradient medium (Fresenius Kabi) followed by centrifugation. The peripheral blood mononuclear cell band was isolated from the gradient and monocytes were enriched using CD14 MACS beads (Miltenyi) according to the manufacturer's instructions. To differentiate monocytes into macrophages cells were cultured in 6-well plates (800.000 cells/mL) in 2 mL X-Vivo 15 medium (Lonza) supplemented with 5 % fetal bovine serum (Biochrom) and 15 ng/mL recombinant human GM-CSF (Preprotech). On day 7 macrophages were considered terminally differentiated and treated with stained bacteria. To this end bacteria stained as described above were sampled at an OD600 nm = 2.0 and washed five times with phosphate buffered saline (PBS). After the last wash bacteria were brought to an OD600 nm of 2.0 and 16 µL, equivalent to 16.000.000 bacteria were added to each well to achieve a multiplicity of infection of 20. Culture plates were then centrifuged for 10 min at 250 G and 37°C to establish physical contact between macrophages and bacteria. Subsequently, culture plates were transferred back into a 37°C incubator with CO2 atmosphere for the remainder of the stimulation period.
Bacteria and macrophages were washed with PBS prior to flow cytometry and analysed using a Guava easyCyte flow cytometer (Millipore). FCS3.0 files were analysed using Flowing Software (http://flowingsoftware.btk.fi/). Cells were first gated in the forward- / side-scatter plot to exclude debries, followed by quadrant gating in plots using the fluorescence channels as shown above. For discrimination of live/dead cell discrimination cells in PBS were supplemented with 0.4 µL/mL propidium-iodide (5 mg/ml solution) followed by 5 min incubation on ice. Propidium iodide signal was recorded in the yellow channel.

Q: Which “quantum yield (ΦF)” value (dsDNACT) does the source give for `CC[n+]1ccc(/C=C/C=C2\Sc3ccccc3N2CCCCCCn2cc(CN)nn2)c2ccccc21.[I-]` [6-TramTO-3, 4-((1E,3Z)-3-(3-(6-(4-(aminomethyl)-1H-1,2,3-triazol-1-yl)hexyl)benzo[d]thiazol-2(3H)-ylidene)prop-1-en-1-yl)-1-ethylquinolin-1-ium iodide] here?
A: 0.27

Q: What about the “long wavelength maximum of emission” value [1] of the same compound?
A: 645 nm

Q: And the “long wavelength maximum of excitation” value [1]?
A: 633 nm

Q: And the “red-shift of the macrophages (bacterial uptake)” value ([2]; macrophages exposed to 6-TramTO-3-labeled E. coli)?
A: ~ 26%

Q: What about the “macrophages that took up bacteria (red-shifted)” value ([2]; macrophages exposed to 6-TramTO-3-labeled antibiotic sensitive Klebsiella strain) of the same compound?
A: ~ 0.2%

Q: And the “macrophages that took up bacteria (red-shifted)” value ([2]; macrophages exposed to 6-TramTO-3-labeled antibiotic-resistant Klebsiella strain)?
A: ~ 4%
